Measurements: patent publication US6235707A, “Anticoagulant peptidyl-arginine aldehyde derivatives” (Gyogyszerkutato Intezet Kft., priority 1996, dated 2001)
pIC50: −log10 of the molar value.

What was measured:
citrate plasma = experiment: prothrombin time (PT) plasma clotting test; type: biochemical; settings: Table 3; twofold prolongation compared to control; read-out: A: anticoagulant IC50, PT
Procedure: Anticoagulant activity (i.e. inhibition of the proteolytic reactions in the process) is measured by anticoagulant tests, e.g. in the thrombin time (TT), activated partial thromboplastin time (APTT) and prothrombin time (PT) tests [E. J. W. Bovie et al., Mayo Clinic Laboratory Manual of Haemostasis; W. B. Saunders Co., Philadelphia (1971)]. Plasma, inhibited in spontaneous coagulation, e.g. citrate-plasma, is made to coagulate and the required coagulation time is measured. Upon the action of anticoagulants the coagulation time is prolonged proportionally to the inhibition of the reaction(s) in the process. The anticoagulant effect can be characterised by the substance concentration required to prolong the coagulation time twofold compared to the control (IC50). The effect of anticoagulants on individual coagulant proteases is measured by the amidolytic method [R. Lottenberg et al., Methods in Enzymol. 80, 341 (1981); G. Cleason, Blood Coagulation and Fibrinolysis 5, 411 (1994)]. The isolated active factor (e.g. thrombin, fXa) and its chromogen or fluorogen peptide-amide substrate are reacted in the presence or absence of the inhibitor, resp. The enzyme inhibiting action is characterised by the inhibitory constant (IC50) measured during amidolysis.
In the TT test coagulation is initiated by the thrombin added to the citrate plasma. In the system 22 pmol/ml of thrombin is functioning and its inhibition can be measured on the fibrinogen (one of the natural substrates of thrombin) in the presence of plasma components. In the APTT and PT tests the full coagulation process takes place. Depending on the activator fX is activated either by the extrinsic or the intrinsic pathway. The generated fXa activates prothrombin to thrombin which, in turn, triggers plasma coagulation. The coagulation time is prolonged if the enzymes or one of them is inhibited by the inhibitor. In the APTT and PT tests at most 40 pmol/ml Xa can be generated (this is the full amount of factor X present in both systems) while 150 pmol/ml (APTT) and 350 pmol/ml (PT) of thrombin are generated [B. Kaiser et al., Thromb. Res. 65, 157 (1992)].
The in vitro anticoagulant effects of the compounds of general formula (I) was measured by the prothrombin time (PT), activated partial thromboplastin time (APTT) and thrombin time (TT) tests [D. Bagdy et al., Thromb. Haemost. 67, 325 (1992)]. The fxa-inhibiting effect of the compounds was also determined using the Bz-Ile-Glu-Gly-Arg-pNA chromogen substrate (see method M6).

clot-bound fXa = biological target: T1, clot-bound fXa (Homo sapiens, UniProt P00742); experiment: inhibition of plasma clot-bound factor Xa (Methods M1, M2); type: biochemical; settings: text b187, well below
T1 construct: from tissue; host or cells: clot of recalcified human platelet-rich plasma
T1 sequence (P00742 235-488 limits assumed): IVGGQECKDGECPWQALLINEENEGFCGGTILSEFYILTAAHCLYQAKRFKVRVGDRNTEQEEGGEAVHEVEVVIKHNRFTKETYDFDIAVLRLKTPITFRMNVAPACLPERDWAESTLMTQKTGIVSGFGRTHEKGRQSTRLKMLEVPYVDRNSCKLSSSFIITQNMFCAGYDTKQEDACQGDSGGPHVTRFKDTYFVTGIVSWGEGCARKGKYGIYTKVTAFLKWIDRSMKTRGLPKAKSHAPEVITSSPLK
T1 sequence (P00742 41-179 partner limits assumed): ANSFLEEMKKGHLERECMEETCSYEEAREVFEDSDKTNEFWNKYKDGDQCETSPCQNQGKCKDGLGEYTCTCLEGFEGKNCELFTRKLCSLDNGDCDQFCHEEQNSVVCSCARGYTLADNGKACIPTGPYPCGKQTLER
Procedure: Plasma-clot was obtained by recalcificating platelet-rich human plasma, and fibrin gel by clotting human fibrinogen with human thrombin. For the activity measures of fXa and thrombin Z-D-Arg-Gly-Arg-pNA or Tos-Gly-Pro-Arg-pNA substrates were used in agreement with Methods M1-M3.
Preparation of Clots from Human Plasma
a) Platelet-rich plasma is prepared by centrifuging a 9:1 mixture of human blood and 3.8% sodium citrate solution for 5 min. at 240×g.
b) 200 μl platelet-rich plasma and 80 μl 40 mM CaCl2 solution are allowed to stand at room temperature for 1 hour. The thus-formed clot is washed with 6×2 ml of 0.9% NaCl solution with gentle stirring to remove the residual enzymes (thrombin and factor Xa). The washing medium is assayed for thrombin-like activity as follows:
c) To 400 μl of washing medium 100 μl of 1 mM Tos-Gly-Pro-Arg-pNA substrate solution is added, the mixture is incubated for 30 min at 37° C., then the reaction is stopped with 100 μl of 50% acetic acid. From this mixture 150 μl aliquots are applied onto a 96-well microtitre plate and the extinction coefficients are measured at 405 nm (ELISA READER SLT Laborinstrument GmbH, Austria). […]
c) From each reaction vessel 150 μl is applied onto a 96 well microtitre plate and extinction coefficients are measured at 405 nm (ELISA READER SLT Laborinstrument GmbH, Austria). […]

[1] = tested on: New Zealand white rabbits; experiment: anticoagulant and platelet aggregation inhibiting effect in rabbits ex vivo, time course; set-up: species or system rabbit; settings: p.o. 5 mg/kg
Procedure: The anticoagulant and platelet aggregation inhibiting effect of the compounds of general formula (I) was studied in New Zealand white rabbits ex vivo according to D. Bagdy et al. [Thromb. Haemost. 67, 357 (1992)]. The compounds were dissolved in buffered isotonic saline solution and administered i.v. (0,04-5.0 mg/kg) or by infusion (0.25-5.0 mg/kg/h) or subcutaneously (0.5-6.0 mg/kg) or p.o. (2.5-20 mg/kg). The effect of the compounds was detectable already within 30 minutes following p.o. administration, peak values were attained after 60-180 minutes and the therapeutic level was maintained dose-dependently for 3→6 hours.
The in vivo effect of ethoxycarbonyl-3-cyclobutyl-D-alanyl-L-prolyl-L-arginine aldehyde (1) is presented in detail in Tables 6 and 7. The corresponding values of C1 are listed as controls. The compound was administered p.o. in doses of 5 mg/kg. The blood samples drawn from the caudal vein in every 30-60 minutes were analysed. The whole blood clotting time (WBCT) and the inhibition of thrombin-induced blood platelet aggregation (PAI) were determined. The activated partial thromboplastin time (APTT) and the thrombin time (TT) in the citrate plasma obtained from the blood sample were also measured. The APTT and TT values are compiled in Table 6 and the WBCT and PAI values in Table 7.

[2] = biological target: tissue plasminogen activator (tPA) (Homo sapiens, UniProt P00750); experiment: fibrin-plate method, plasmin formation induced by tPA; type: biochemical
tissue plasminogen activator (tPA), sequence (P00750 36-562, species assumed): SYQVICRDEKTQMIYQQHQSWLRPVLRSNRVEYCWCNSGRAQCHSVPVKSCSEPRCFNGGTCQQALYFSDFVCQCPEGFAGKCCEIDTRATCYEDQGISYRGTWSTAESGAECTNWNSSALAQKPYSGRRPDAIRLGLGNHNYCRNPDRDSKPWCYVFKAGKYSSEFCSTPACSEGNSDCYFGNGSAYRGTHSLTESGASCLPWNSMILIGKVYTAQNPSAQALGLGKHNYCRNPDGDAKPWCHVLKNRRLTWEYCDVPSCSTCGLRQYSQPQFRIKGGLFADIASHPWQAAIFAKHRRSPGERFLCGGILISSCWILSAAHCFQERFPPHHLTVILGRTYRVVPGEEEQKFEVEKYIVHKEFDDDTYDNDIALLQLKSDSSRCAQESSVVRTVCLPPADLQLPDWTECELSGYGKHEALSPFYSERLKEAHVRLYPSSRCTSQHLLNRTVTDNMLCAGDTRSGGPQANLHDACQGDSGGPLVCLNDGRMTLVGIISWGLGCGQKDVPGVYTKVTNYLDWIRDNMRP
From the text: The inhibitory effect of the new compounds of the invention on plasmin (PL) as well as on plasmin formation induced by tissue plasminogen activator (tPA) and urokinase (UK) was examined by the fibrin-plate method [D. Bagdy et al.: Thromb. Haemost. 67, 325 (1992)]. Compounds C1 and C5 served as controls. […] V. Jackson et al.: J. Cardiovasc. Pharmacol. 21, 587 (1993))]. In Table 4 the results obtained with the new compounds 1 and 2 as well as those with controls C1 and C5 are presented as an example.

Q: What does the source list for `CCOC(=O)N[C@H](CC1CCC1)C(=O)N1CCC[C@H]1C(=O)N[C@H](C=O)CCCNC(=N)N` [Example 1, Ethoxycarbonyl-3-cyclobutyl-D-alanyl-L-prolyl-L-arginine aldehyde]?
A: pIC50 (citrate plasma): 5.94; pIC50 (clot-bound fXa): > 6.00; duration of anticoagulant and antiaggregation effect compared to control C1 [1]: longer-lasting; pIC50 ([2]; fibrin plate, hydrolysed area reduced to 50% of control): 4.57; B: relative efficiency, tPA ([2]; related to the activity of C1 (1/IC50 = 1)): 4.9; activity against tPA, times lower than that of compound C5 ([2]; text b147, second of three enzymes): 4.5 times
